Measurements as given in PMC13266999, “Designing Antibiotics with Inherent Resistance to Efflux as a Strategy to Revive Discovery against Multidrug-Resistant Pathogens” (Journal of Medicinal Chemistry, 2026).
Where “and” joins values, the source holds several entries; their conditions need not be identical. Equal values may be shown once.

Assays:
5-HT transporter (h) = molecular target: T1, 5-HT transporter (h) (Homo sapiens, UniProt P31645); experiment: SafetyScreen44; conditions: antagonist radioligand, specific binding, 1.0E-05 M
T1 construct: purchased Eurofins (SafetyScreen44)
Protocol: (§1) Off-target pharmacology was evaluated using the Eurofins SafetyScreen44 in vitro panel. […] Binding assays were performed using radioligand displacement, and enzyme or uptake assays measured inhibition of control activity using validated detection methods (scintillation counting, fluorimetry or photometry). Responses were expressed as percent inhibition of control binding or activity. Based on Eurofins interpretation guidelines, effects ≥50% were considered significant, effects between 25% and 50% weak to moderate, and effects <25% were not considered biologically relevant.

beta 1 (h) = molecular target: T2, beta 1 (h) (Homo sapiens, UniProt P08588); experiment: SafetyScreen44; conditions: agonist radioligand, specific binding, 1.0E-05 M
T2 construct: purchased Eurofins (SafetyScreen44)
T2 sequence (P08588 whole entry): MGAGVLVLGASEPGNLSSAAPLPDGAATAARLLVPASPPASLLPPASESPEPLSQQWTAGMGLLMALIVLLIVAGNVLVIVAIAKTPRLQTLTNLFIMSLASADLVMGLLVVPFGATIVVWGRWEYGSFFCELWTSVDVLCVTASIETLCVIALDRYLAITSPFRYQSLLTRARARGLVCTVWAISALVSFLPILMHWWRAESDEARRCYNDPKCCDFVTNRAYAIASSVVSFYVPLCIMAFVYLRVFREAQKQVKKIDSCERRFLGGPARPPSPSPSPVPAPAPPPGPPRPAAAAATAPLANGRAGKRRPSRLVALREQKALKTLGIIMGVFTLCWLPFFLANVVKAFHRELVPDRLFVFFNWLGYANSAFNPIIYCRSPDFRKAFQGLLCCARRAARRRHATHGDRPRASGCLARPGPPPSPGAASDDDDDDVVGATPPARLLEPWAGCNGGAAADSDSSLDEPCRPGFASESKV
Protocol: as §1

5-HT2A (h) = molecular target: T3, 5-HT2A (h) (Homo sapiens, UniProt P28223); experiment: SafetyScreen44; conditions: agonist radioligand, specific binding, 1.0E-05 M
T3 construct: purchased Eurofins (SafetyScreen44)
Protocol: as §1

D2S (h) = molecular target: T4, D2S (h) (Homo sapiens, UniProt P14416); experiment: SafetyScreen44; conditions: agonist radioligand, specific binding, 1.0E-05 M
T4 construct: purchased Eurofins (SafetyScreen44)
T4 sequence (P14416 1-414 isoform P14416-2): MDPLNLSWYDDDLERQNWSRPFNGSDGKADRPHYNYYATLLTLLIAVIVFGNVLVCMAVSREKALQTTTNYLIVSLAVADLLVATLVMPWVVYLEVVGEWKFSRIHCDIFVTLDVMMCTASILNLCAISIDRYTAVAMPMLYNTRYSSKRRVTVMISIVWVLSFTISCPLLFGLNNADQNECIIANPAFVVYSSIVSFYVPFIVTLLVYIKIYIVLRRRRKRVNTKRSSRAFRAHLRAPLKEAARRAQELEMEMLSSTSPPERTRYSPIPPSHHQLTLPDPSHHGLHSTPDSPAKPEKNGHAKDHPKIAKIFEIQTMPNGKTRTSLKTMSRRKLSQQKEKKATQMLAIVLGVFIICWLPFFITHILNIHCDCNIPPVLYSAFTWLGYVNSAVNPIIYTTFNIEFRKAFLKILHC
Protocol: as §1

5-HT3 (h) = molecular target: T5, 5-HT3 (h) (Homo sapiens, UniProt P46098); experiment: SafetyScreen44; conditions: antagonist radioligand, specific binding, 1.0E-05 M
T5 construct: purchased Eurofins (SafetyScreen44)
Protocol: as §1

Na+ channel (site 2) = experiment: SafetyScreen44; conditions: antagonist radioligand, specific binding, 1.0E-05 M
Protocol: as §1

CB2 (h) = molecular target: T6, CB2 (h) (Homo sapiens, UniProt P34972); experiment: SafetyScreen44; conditions: agonist radioligand, specific binding, 1.0E-05 M
T6 construct: purchased Eurofins (SafetyScreen44)
Protocol: as §1

A2A (h) = molecular target: T7, A2A (h) (Homo sapiens, UniProt P29274); experiment: SafetyScreen44; conditions: agonist radioligand, specific binding, 1.0E-05 M
T7 construct: purchased Eurofins (SafetyScreen44)
T7 sequence (P29274 whole entry): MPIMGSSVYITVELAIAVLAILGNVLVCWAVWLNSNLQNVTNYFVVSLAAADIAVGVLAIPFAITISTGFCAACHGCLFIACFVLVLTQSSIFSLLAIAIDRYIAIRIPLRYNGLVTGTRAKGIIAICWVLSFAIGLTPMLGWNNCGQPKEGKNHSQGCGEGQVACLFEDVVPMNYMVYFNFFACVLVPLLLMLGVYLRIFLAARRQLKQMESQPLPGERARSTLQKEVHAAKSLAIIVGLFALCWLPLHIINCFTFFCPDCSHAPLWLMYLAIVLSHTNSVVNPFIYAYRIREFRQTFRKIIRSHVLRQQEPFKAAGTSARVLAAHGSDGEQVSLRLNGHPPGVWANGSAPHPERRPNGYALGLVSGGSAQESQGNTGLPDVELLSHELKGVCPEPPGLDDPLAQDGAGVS
Protocol: as §1

D1 (h) = molecular target: T8, D1 (h) (Homo sapiens, UniProt P21728); experiment: SafetyScreen44; conditions: antagonist radioligand, specific binding, 1.0E-05 M
T8 construct: purchased Eurofins (SafetyScreen44)
Protocol: as §1

M1 (h) = molecular target: T9, M1 (h) (Homo sapiens, UniProt P11229); experiment: SafetyScreen44; conditions: antagonist radioligand, specific binding, 1.0E-05 M
T9 construct: purchased Eurofins (SafetyScreen44)
Protocol: as §1

5-HT2B (h) = molecular target: T10, 5-HT2B (h) (Homo sapiens, UniProt P41595); experiment: SafetyScreen44; conditions: agonist radioligand, specific binding, 1.0E-05 M
T10 construct: purchased Eurofins (SafetyScreen44)
Protocol: as §1

[1] = molecular target: T11, Potassium Channel hERG (human) (Homo sapiens, UniProt Q12809); experiment: SafetyScreen44; conditions: [3H] Dofetilide, specific binding, 1.0E-05 M
T11 construct: purchased Eurofins (SafetyScreen44)
Protocol: as §1

H1 (h) = molecular target: T12, H1 (h) (Homo sapiens, UniProt P35367); experiment: SafetyScreen44; conditions: antagonist radioligand, specific binding, 1.0E-05 M
T12 construct: purchased Eurofins (SafetyScreen44)
Protocol: as §1

MAO-A = molecular target: T13, MAO-A (Rattus norvegicus, UniProt P21396); experiment: SafetyScreen44; conditions: antagonist radioligand, specific binding, 1.0E-05 M
T13 construct: purchased Eurofins (SafetyScreen44)
Protocol: as §1

GR (h) = molecular target: T14, GR (h) (Homo sapiens, UniProt P04150); experiment: SafetyScreen44; conditions: agonist radioligand, specific binding, 1.0E-05 M
T14 construct: purchased Eurofins (SafetyScreen44)
Protocol: as §1

[2] = tested on: Ca2+ channel (L, dihydropyridine site); experiment: SafetyScreen44; conditions: antagonist radioligand, specific binding, 1.0E-05 M
Protocol: as §1

dopamine transporter (h) = molecular target: T15, dopamine transporter (h) (Homo sapiens, UniProt Q01959); experiment: SafetyScreen44; conditions: antagonist radioligand, specific binding, 1.0E-05 M
T15 construct: purchased Eurofins (SafetyScreen44)
Protocol: as §1

5-HT1B = molecular target: T16, 5-HT1B (Rattus norvegicus, UniProt P28564); experiment: SafetyScreen44; conditions: antagonist radioligand, specific binding, 1.0E-05 M
T16 construct: purchased Eurofins (SafetyScreen44)
Protocol: as §1

[3] = molecular target: T17, norepinephrine transporter (h) (Homo sapiens, UniProt P23975); experiment: SafetyScreen44; conditions: antagonist radioligand, specific binding, 1.0E-05 M
T17 construct: purchased Eurofins (SafetyScreen44)
T17 sequence (P23975 whole entry): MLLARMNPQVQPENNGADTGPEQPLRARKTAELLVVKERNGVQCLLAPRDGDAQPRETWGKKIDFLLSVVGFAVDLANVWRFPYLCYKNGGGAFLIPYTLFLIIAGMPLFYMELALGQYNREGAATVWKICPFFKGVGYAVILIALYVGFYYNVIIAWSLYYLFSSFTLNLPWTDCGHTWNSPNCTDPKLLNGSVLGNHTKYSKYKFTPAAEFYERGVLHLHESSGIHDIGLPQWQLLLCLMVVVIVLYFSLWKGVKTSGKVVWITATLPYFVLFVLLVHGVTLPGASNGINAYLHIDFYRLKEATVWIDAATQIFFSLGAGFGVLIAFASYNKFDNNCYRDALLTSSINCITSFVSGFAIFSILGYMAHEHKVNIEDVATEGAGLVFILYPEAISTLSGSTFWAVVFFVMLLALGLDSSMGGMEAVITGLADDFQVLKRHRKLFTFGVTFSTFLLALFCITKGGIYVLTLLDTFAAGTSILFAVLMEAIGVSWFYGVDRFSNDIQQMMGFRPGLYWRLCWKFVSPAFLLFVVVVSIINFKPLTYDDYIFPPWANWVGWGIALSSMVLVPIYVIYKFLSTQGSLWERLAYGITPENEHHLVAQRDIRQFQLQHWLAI
Protocol: as §1

alpha 2A (h) = molecular target: T18, alpha 2A (h) (Homo sapiens, UniProt P08913); experiment: SafetyScreen44; conditions: antagonist radioligand, specific binding, 1.0E-05 M
T18 construct: purchased Eurofins (SafetyScreen44)
Protocol: as §1

NMDA = experiment: SafetyScreen44; conditions: antagonist radioligand, specific binding, 1.0E-05 M
Protocol: as §1

5-HT1A (h) = molecular target: T19, 5-HT1A (h) (Homo sapiens, UniProt P08908); experiment: SafetyScreen44; conditions: agonist radioligand, specific binding, 1.0E-05 M
T19 construct: purchased Eurofins (SafetyScreen44)
Protocol: as §1

kappa (KOP) = molecular target: T20, kappa (KOP) (Rattus norvegicus, UniProt P34975); experiment: SafetyScreen44; conditions: agonist radioligand, specific binding, 1.0E-05 M
T20 construct: purchased Eurofins (SafetyScreen44)
T20 sequence (P34975 whole entry): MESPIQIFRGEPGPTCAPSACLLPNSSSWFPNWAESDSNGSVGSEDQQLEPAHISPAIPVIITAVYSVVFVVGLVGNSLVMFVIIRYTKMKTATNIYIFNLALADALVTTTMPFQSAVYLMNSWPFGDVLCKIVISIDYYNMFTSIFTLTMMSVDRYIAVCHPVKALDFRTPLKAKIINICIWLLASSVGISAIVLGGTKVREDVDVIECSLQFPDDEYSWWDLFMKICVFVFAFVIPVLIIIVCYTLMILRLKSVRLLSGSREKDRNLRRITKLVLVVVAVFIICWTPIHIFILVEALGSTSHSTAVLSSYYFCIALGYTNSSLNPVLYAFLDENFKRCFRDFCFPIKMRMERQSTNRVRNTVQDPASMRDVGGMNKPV
Protocol: as §1

CCK1 (CCKA) (h) = molecular target: T21, CCK1 (CCKA) (h) (Homo sapiens, UniProt P32238); experiment: SafetyScreen44; conditions: agonist radioligand, specific binding, 1.0E-05 M
T21 construct: purchased Eurofins (SafetyScreen44)
Protocol: as §1

M3 (h) = molecular target: T22, M3 (h) (Homo sapiens, UniProt P20309); experiment: SafetyScreen44; conditions: antagonist radioligand, specific binding, 1.0E-05 M
T22 construct: purchased Eurofins (SafetyScreen44)
T22 sequence (P20309 whole entry): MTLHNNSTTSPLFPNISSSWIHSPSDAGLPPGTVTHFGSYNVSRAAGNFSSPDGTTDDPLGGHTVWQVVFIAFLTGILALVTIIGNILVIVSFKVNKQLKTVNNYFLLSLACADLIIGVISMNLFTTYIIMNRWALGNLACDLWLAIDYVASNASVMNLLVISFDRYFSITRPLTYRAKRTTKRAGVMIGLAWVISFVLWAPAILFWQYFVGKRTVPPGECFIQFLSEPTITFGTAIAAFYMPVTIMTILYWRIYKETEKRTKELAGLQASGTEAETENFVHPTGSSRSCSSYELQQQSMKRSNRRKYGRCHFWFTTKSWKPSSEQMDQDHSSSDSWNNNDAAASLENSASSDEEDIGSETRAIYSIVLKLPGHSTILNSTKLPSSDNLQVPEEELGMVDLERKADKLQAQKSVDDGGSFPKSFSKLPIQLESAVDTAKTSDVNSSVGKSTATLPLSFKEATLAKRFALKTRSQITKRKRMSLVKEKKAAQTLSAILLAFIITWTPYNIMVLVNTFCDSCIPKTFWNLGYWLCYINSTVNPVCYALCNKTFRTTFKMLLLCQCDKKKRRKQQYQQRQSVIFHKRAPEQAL
Protocol: as §1

ETA (h) = molecular target: T23, ETA (h) (Homo sapiens, UniProt P25101); experiment: SafetyScreen44; conditions: agonist radioligand, specific binding, 1.0E-05 M
T23 construct: purchased Eurofins (SafetyScreen44)
T23 sequence (P25101 21-427): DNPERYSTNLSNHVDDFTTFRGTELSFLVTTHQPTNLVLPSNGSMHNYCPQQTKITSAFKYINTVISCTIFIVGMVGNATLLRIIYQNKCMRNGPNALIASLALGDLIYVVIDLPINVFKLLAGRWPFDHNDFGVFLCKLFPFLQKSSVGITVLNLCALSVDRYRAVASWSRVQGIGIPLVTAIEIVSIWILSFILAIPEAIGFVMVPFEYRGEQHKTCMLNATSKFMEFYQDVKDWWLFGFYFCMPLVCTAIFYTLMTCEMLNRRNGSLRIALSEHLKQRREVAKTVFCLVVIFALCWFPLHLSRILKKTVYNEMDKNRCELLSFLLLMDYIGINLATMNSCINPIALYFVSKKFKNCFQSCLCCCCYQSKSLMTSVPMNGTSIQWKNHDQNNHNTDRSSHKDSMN
Protocol: as §1

BZD (central) = experiment: SafetyScreen44; conditions: agonist radioligand, specific binding, 1.0E-05 M
Protocol: as §1

alpha 1A (h) = molecular target: T24, alpha 1A (h) (Homo sapiens, UniProt P35348); experiment: SafetyScreen44; conditions: antagonist radioligand, specific binding, 1.0E-05 M
T24 construct: purchased Eurofins (SafetyScreen44)
Protocol: as §1

delta (DOP) (h) = molecular target: T25, delta (DOP) (h) (Homo sapiens, UniProt P41143); experiment: SafetyScreen44; conditions: agonist radioligand, specific binding, 1.0E-05 M
T25 construct: purchased Eurofins (SafetyScreen44)
Protocol: as §1

[4] = molecular target: T26, N neuronal alpha 4beta 2 (h) (Homo sapiens, UniProt P17787+P43681); experiment: SafetyScreen44; conditions: agonist radioligand, specific binding, 1.0E-05 M
T26 construct: purchased Eurofins (SafetyScreen44)
T26 sequence (P43681 29-627 limits assumed): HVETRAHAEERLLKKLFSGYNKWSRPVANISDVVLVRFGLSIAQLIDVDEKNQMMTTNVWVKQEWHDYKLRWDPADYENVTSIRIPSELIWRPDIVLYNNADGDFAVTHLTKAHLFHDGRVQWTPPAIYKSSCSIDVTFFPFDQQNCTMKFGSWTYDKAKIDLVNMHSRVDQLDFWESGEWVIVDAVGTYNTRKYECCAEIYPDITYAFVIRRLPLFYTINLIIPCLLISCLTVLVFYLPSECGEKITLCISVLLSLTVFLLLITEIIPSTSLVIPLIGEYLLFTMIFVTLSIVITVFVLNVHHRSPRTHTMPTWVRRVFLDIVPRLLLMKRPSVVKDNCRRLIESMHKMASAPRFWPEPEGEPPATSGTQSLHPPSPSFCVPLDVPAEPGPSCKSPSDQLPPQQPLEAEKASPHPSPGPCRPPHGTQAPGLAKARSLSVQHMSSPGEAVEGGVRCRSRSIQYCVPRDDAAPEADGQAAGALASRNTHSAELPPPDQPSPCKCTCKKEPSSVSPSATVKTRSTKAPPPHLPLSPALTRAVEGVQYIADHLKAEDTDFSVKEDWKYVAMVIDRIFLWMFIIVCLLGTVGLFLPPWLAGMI
T26 sequence (P17787 26-502): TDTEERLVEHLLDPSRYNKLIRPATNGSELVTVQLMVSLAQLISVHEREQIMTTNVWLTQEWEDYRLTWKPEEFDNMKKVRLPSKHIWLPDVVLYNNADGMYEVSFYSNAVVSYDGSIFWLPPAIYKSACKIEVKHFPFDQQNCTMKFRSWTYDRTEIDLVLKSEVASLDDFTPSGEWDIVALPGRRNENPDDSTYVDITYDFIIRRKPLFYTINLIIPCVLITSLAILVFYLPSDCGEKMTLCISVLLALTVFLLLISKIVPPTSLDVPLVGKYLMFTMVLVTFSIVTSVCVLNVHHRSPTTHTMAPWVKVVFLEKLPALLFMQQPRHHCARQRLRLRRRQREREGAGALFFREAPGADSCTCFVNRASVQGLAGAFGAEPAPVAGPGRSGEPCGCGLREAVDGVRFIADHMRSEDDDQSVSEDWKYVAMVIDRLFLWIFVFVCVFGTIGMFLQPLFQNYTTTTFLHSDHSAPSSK
Protocol: as §1

M2 (h) = molecular target: T27, M2 (h) (Homo sapiens, UniProt P08172); experiment: SafetyScreen44; conditions: antagonist radioligand, specific binding, 1.0E-05 M
T27 construct: purchased Eurofins (SafetyScreen44)
Protocol: as §1

mu (MOP) (h) = molecular target: T28, mu (MOP) (h) (Homo sapiens, UniProt P35372); experiment: SafetyScreen44; conditions: agonist radioligand, specific binding, 1.0E-05 M
T28 construct: purchased Eurofins (SafetyScreen44)
Protocol: as §1

beta 2 (h) = molecular target: T29, beta 2 (h) (Homo sapiens, UniProt P07550); experiment: SafetyScreen44; conditions: antagonist radioligand, specific binding, 1.0E-05 M
T29 construct: purchased Eurofins (SafetyScreen44)
Protocol: as §1

CB1 (h) = molecular target: T30, CB1 (h) (Homo sapiens, UniProt P21554); experiment: SafetyScreen44; conditions: agonist radioligand, specific binding, 1.0E-05 M
T30 construct: purchased Eurofins (SafetyScreen44 panel) assay 36
T30 sequence (P21554 whole entry): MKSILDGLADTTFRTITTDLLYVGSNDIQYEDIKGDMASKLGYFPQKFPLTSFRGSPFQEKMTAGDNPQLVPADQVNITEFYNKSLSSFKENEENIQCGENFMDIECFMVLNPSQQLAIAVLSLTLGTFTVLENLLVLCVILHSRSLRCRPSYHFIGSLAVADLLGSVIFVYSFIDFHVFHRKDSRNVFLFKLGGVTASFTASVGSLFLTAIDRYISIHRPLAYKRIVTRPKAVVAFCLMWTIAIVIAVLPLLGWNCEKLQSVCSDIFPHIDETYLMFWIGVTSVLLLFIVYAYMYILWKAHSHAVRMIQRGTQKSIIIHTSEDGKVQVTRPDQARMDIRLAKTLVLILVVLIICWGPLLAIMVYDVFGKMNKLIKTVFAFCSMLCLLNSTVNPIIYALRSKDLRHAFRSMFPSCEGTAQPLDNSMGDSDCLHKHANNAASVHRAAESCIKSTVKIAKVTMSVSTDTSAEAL
Protocol: as §1

H2 (h) = molecular target: T31, H2 (h) (Homo sapiens, UniProt P25021); experiment: SafetyScreen44; conditions: antagonist radioligand, specific binding, 1.0E-05 M
T31 construct: purchased Eurofins (SafetyScreen44)
Protocol: as §1

KV channel = experiment: SafetyScreen44; conditions: antagonist radioligand, specific binding, 1.0E-05 M
Protocol: as §1

V1a (h) = molecular target: T32, V1a (h) (Homo sapiens, UniProt P37288); experiment: SafetyScreen44; conditions: agonist radioligand, specific binding, 1.0E-05 M
T32 construct: purchased Eurofins (SafetyScreen44)
Protocol: as §1

MRSA ATCC 33591 = experiment: Neutropenic murine thigh infection model; conditions: oral 50 mg/kg TID at 2, 8, and 14 h postinfection; at 26 h

## C[C@H]1COc2c(N3CC[C@@H](Nc4ncccn4)C3)c(F)cc3c(=O)c(C(=O)O)cn1c23 [Compound 46, (S)-9-Fluoro-3-methyl-7-oxo-10-((R)-3-(pyrimidin-2-ylamino)pyrrolidin-1-yl)-2,3-dihydro-7H-[1,4]oxazino[2,3,4-ij]quinoline-6-carboxylic acid]
5-HT transporter (h)
  % Inhibition: -16.9663%
Beta 1 (h)
  % Inhibition: 1.921%
5-HT2A (h)
  % Inhibition: -8.881%
D2S (h)
  inhibition at 10 µM: -7.81%
5-HT3 (h)
  % Inhibition: -4.708%
Na+ channel (site 2)
  % Inhibition: 23.6539%
CB2 (h)
  % Inhibition: 0%
A2A (h)
  % Inhibition: 53.628% and 53.6%
D1 (h)
  inhibition at 10 µM: -15.4%
M1 (h)
  % Inhibition: 3.129%
5-HT2B (h)
  % Inhibition: 5.374%
[1]
  % Inhibition: -0.2461%
H1 (h)
  % Inhibition: 5.564%
MAO-A
  % Inhibition: -9.13%
GR (h)
  % Inhibition: 3.456%
[2]
  % Inhibition: 6.049%
Dopamine transporter (h)
  % Inhibition: 10.0257%
5-HT1B
  % Inhibition: -16.7063%
[3]
  % Inhibition: -6.471%
Alpha 2A (h)
  inhibition at 10 µM: 4.48%
NMDA
  % Inhibition: 12.6124%
5-HT1A (h)
  % Inhibition: -3.77%
Kappa (KOP)
  % Inhibition: 27.3513% and 27.4%
CCK1 (CCKA) (h)
  % Inhibition: -2.038%
M3 (h)
  % Inhibition: 2.273%
ETA (h)
  % Inhibition: -5.236%
BZD (central)
  % Inhibition: -44.8289%
Alpha 1A (h)
  inhibition at 10 µM: 11.5%
Delta (DOP) (h)
  inhibition at 10 µM: 2.16%
[4]
  inhibition at 10 µM: -41.8%
M2 (h)
  % Inhibition: 1.066%
Mu (MOP) (h)
  % Inhibition: 6.535%
Beta 2 (h)
  % Inhibition: 11.3086%
CB1 (h)
  % Inhibition: 1.857%
H2 (h)
  % Inhibition: -40.1709%
KV channel
  % Inhibition: -4.644%
V1a (h)
  % Inhibition: -12.5662%

## Cc1cc(C)nc(N[C@@H]2CCN(c3c(F)cc4c(=O)c(C(=O)O)cn5c4c3OC[C@@H]5C)C2)n1 [Compound 50, (S)-10-((R)-3-((4,6-Dimethylpyrimidin-2-yl)amino)pyrrolidin-1-yl)-9-fluoro-3-methyl-7-oxo-2,3-dihydro-7H-[1,4]oxazino[2,3,4-ij]quinoline-6-carboxylic acid]
MRSA ATCC 33591
  bacterial counts in thigh: 4.6 log10 CFU/g
  reduction relative to the vehicle: 4.1 log10 CFU/g
5-HT transporter (h)
  inhibition at 10 µM: 2.23%
Beta 1 (h)
  inhibition at 10 µM: 12.5%
5-HT2A (h)
  inhibition at 10 µM: 41.5%
D2S (h)
  inhibition at 10 µM: -3.93%
5-HT3 (h)
  inhibition at 10 µM: 7.02%
Na+ channel (site 2)
  % Inhibition: -10.2569%
CB2 (h)
  inhibition at 10 µM: 0.988%
A2A (h)
  % Inhibition: 82.8099% and 82.8%
D1 (h)
  inhibition at 10 µM: -5.66%
M1 (h)
  inhibition at 10 µM: 25.5%
5-HT2B (h)
  inhibition at 10 µM: 9.78%
[1]
  % Inhibition: -1.132%
H1 (h)
  inhibition at 10 µM: 5.57%
MAO-A
  inhibition at 10 µM: 15%
GR (h)
  inhibition at 10 µM: 9.19%
[2]
  % Inhibition: -7.1517%
Dopamine transporter (h)
  inhibition at 10 µM: 22.6%
5-HT1B
  inhibition at 10 µM: 10.2%
[3]
  inhibition at 10 µM: 2.06%
Alpha 2A (h)
  inhibition at 10 µM: 23.5%
NMDA
  % Inhibition: -5.137%
5-HT1A (h)
  inhibition at 10 µM: -2.72%
Kappa (KOP)
  inhibition at 10 µM: 20.1%
CCK1 (CCKA) (h)
  inhibition at 10 µM: -39.6%
M3 (h)
  inhibition at 10 µM: 3.56%
ETA (h)
  inhibition at 10 µM: 0.266%
BZD (central)
  % Inhibition: 22.3569%
Alpha 1A (h)
  inhibition at 10 µM: 6.96%
Delta (DOP) (h)
  inhibition at 10 µM: 1.77%
[4]
  inhibition at 10 µM: 0.422%
M2 (h)
  inhibition at 10 µM: 62.8%
Mu (MOP) (h)
  inhibition at 10 µM: 0.499%
Beta 2 (h)
  inhibition at 10 µM: -4.15%
CB1 (h)
  inhibition at 10 µM: -8.28%
H2 (h)
  inhibition at 10 µM: -9.63%
KV channel
  % Inhibition: 3.113%
V1a (h)
  inhibition at 10 µM: 9.53%

## C[C@H]1COc2c(N3CCN(C)CC3)c(F)cc3c(=O)c(C(=O)O)cn1c23 [Levofloxacin, (S)-9-Fluoro-3-methyl-10-(4-methylpiperazin-1-yl)-7-oxo-2,3-dihydro-7H-[1,4]oxazino[2,3,4-ij]quinoline-6-carboxylic acid, reference compound]
MRSA ATCC 33591
  bacterial counts in thigh: 4.51 log10 CFU/g
